From patent US8765908B2, “Compositions for improving bone mass” (The UAB Research Foundation, priority 2010, dated 2014) come the findings set out here.

Entries after “also recorded” stand apart in the source; their conditions may differ.

In series [1] the test system is RYBP. As to the kind of experiment: Western blot of RYBP expression in retrovirally infected BMMs. The series is classed as cell-based, mouse. As to conditions: BMMs infected with retrovirus expressing siRNA; anti-RYBP Western blot. The procedure: Western blot analysis was performed as previously described (Xu et al., 2006; Liu et al., 2004). RAW264.7 cells cultured in DMEM containing 10% HI-FBS and penicillin/streptomycin were treated with RANKL (100 ng/ml) for various times before being lysed for Western blot analysis with anti-RYBP antibody from Abcam Inc (Cambridge, Mass.). Primary BMMs were normally cultured in α-MEM containing 10% HI-FBS and penicillin/streptomycin in the presence of M-CSF (44 ng/ml). Uninfected BMMs or BMMs infected with retrovirus encoding siRNA and/or tagged-RYBP were cultured in the presence of M-CSF (44 ng/ml) with or without RANKL (100 ng/ml) for various times and then lysed for Western blot analysis. For Western blot analysis of IP complex, all 35 μl of the eluted proteins from each IP assay was loaded for Western blot analysis with anti-HA antibody (Clontech Laboratories, Inc), anti-Myc antibody (Clontech Laboratories, Inc), anti-RYBP (Abcam Inc) antibody and anti-β-actin antibody (Santa Cruz Biotechnology).
293GPG cells were cultured in DMEM with 10% HI-FBS supplemented with tetracycline, puromycin, G418 and penicillin/streptomycin as previously described {2222). Plat-E cells were cultured in DMEM with 10% HI-FBS supplemented with puromycin, blasticidin and penicillin/streptomycin as previously described {Morita, 2000 3155/id}. […]
For orientation: In western blotting, separated proteins are transferred to a membrane and probed.

Series [2] deals with primary BMMs. As to the kind of experiment: In vitro osteoclastogenesis assay (TRAP staining). Type of series: cell-based, mouse. As to conditions: TRAP stain. The procedure:
Primary BMMs were cultured in 24-well tissue culture plates (5×10^4 cells/well) with a-MEM containing 10% heat-inactivated FBS in the presence of 0.02 volume of culture supernatant of M-CSF-producing cells (final M-CSF concentration 44 ng/ml) (Takeshita et al., 2000) and 100 ng of GST-RANKL (Lam et al., 2000). […]
293GPG cells were cultured in DMEM with 10% HI-FBS supplemented with tetracycline, puromycin, G418 and penicillin/streptomycin as previously described {2222). Plat-E cells were cultured in DMEM with 10% HI-FBS supplemented with puromycin, blasticidin and penicillin/streptomycin as previously described {Morita, 2000 3155/id}. The retroviral vectors were transiently transfected into 293GPG cells or Plat-E cells using Lipofectamine Plus Reagent (Invitrogen). Virus supernatant was collected at 48, 72 and 96 h after transfection. Cells were then infected with virus for 24 hours in the presence of M-CSF (220 ng/ml) and 8 μg/ml polybrene. Cells were further cultured in the presence of M-CSF (220 ng/ml) and 2 μg/ml puromycin for selection and expansion of transduced cells. Selected cells were subsequently used for various studies.
A scrambled siRNA sequence was designed to use as control (FIG. 3A). BMMs were uninfected or infected with retrovirus expressing scrambled RNA or RYBP siRNA. […]

The target in series [3] is T1, 49-aa RANK segment (residues 498-546) containing the IVVY motif (Mus musculus, UniProt O35305).
T1 construct: expressed in transfected cells; host or cells: yeast strain AH109
T1 sequence (O35305 498-546): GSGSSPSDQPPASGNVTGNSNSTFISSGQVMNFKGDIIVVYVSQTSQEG
Description: Two-hybrid screen of osteoclast precursor cDNA library. Type of series: binding. The conditions noted are these: yeast AH109, medium stringency. The text has this: An osteoclast precursor cDNA library was constructed using CloneMiner™ cDNA Library Construction System from Invitrogen (Carlsbad, Calif.). Briefly, mRNA was isolated from mouse primary BMMs and used as template for cDNA synthesis. Synthesized cDNA was size fractionated by column chromatography and the desired size of cDNA (>500 bp) was pooled and cloned into pDONOR™222 vector with BP Clonase™ to make Osteoclast Precursor cDNA Entry Library. pGBKT7 AD Vector of MATCHMAKER Two-Hybrid System 3 (Invitrogen) was converted to a Gateway® destination vector using Gateway® Vector Conversion System (Invitrogen). The whole set of cDNA clones was then transferred from the Osteoclast Precursor cDNA Entry Library into the modified pGBKT7 AD Vector to prepare an Osteoclast Precursor Two-Hybrid cDNA Library.
A 49-aa RANK segment (residues 498-546) containing the IVVY (SEQ ID NO: 4) motif (residues 535-538) was used as bait in the two-hybrid screening. A mouse cDNA region encoding this 49-aa RANK fragment was cloned in frame into pGBKT7 DNA-BD Vector of the MATCHMAKER Two-Hybrid System 3 (Invitrogen). The resulting plasmid was named as pGBKT7 DNA-BD-RANK. […]

As to “RYBP siRNA: retrovirally expressed siRNA targeting the RYBP mRNA region encoding DPPSEA (AGCUUCACUAGGAGGAUCU)”, the RYBP expression entry in series [1] is recorded as “significantly suppressed RYBP expression; also recorded: dramatically knocked down endogenous RYBP expression”. The osteoclastogenesis entry in series [2] (infected BMMs treated with M-CSF (44 ng/ml) and RANKL (100 ng/ml) for 4 days) is on record as “inhibited osteoclastogenesis”.

B1: RYBP-HA: WT RYBP with HA tag at C-terminus, siRNA target region silently mutated (protein, UniProt Q8N488 1-228, looked up)
RING1 and YY1-binding protein: MTMGDKKSPTRPKRQAKPAADEGFWDCSVCTFRNSAEAFKCSICDVRKGTSTRKPRINSQLVAQQVAQQYATPPPPKKEKKEKVEKQDKEKPEKDKEISPSVTKKNTNKKTKPKSDILKDPPSEANSIQSANATTKTSETNHTSRPRLKNVDRSTAQQLAVTVGNVTVIITDFKEKTRSSSTSSSTVTSSAGSEQQNQSSSGSESTDKGSSRSSTPKGDMSAVNDESF
modifications: C-terminal HA tag
notes: WT RYBP with HA tag at C-terminus, siRNA target region silently mutated
With B1, the rescue of osteoclastogenesis result in series [2] (BMMs co-infected with RYBP siRNA retrovirus, M-CSF and RANKL 4 days) was “effectively rescued osteoclastogenesis”.

B2: RYBP: RING1A and YY1 binding protein, amino acid sequence SEQ ID NO:2 (protein, listed as Mus sp.)
chain: MTMGDKKSPTRPKRQAKPAADEGFWDCSVCTFRNSAEAFKCSICDVRKGTSTRKPRINSQLVAQQVAQQYATPPPPKKEKKEKVEKPDKEKPEKDKDISPSVTKKNTNKKTKPKSDILKDPPSEANSIQSANATTKTSETNHTSRPRLKNVDRSTAQQLAVTVGNVTVIITDFKEKTRSSSTSSSTVTSSAGSEQQNQSSSGSESTDKGSSRSSTPKGDMSAVNDESF
With B2, the “affinity for the bait (time a clone takes to become blue)” value in series [3] was “highest affinity for the bait”.
